Source: patent US20030022158A1, “Peptides from the TT virus sequence and monospecific antibodies binding to the TT virus” (priority 1999, published 2003)

Tested on: human IgG antibodies in human serum samples
Experiment: EIA of human antibody reactivities to overlapping synthetic peptides of TTV ORF1 and ORF2 (Tables 2 and 3)
Format: binding
Details: human serum sample 1, negative for TTV DNA by PCR; serum diluted 1:100; OD over 0.500 considered positive
From the text: Overlapping peptides (18 amino acids in length containing an 8 amino acid overlap) corresponding to regions of the ORFI and ORF2 of TTV (TABLE 1; Genebank accession no AB008394) were produced by a multiple peptide synthesizer (Syro, Syntex, Germany) using standard Fmoc chemistry (Sallberg et al., Immunology Letters, 30:59 68 (1991), herein expressly incorporated by reference in its entirety).
(§1) The EIAs used to identify which peptides interacted with human sera followed protocols known in the art. (See Zhang et al., J Gen Virol, 78:2735-2746 (1997), herein expressly incorporated by reference in its entirety). Briefly, microplates (Nunc, Denmark) were coated for 48 hours with synthetic peptides at a concentration of 10 μg/ml in 0.05M sodium carbonate buffer pH 9.6. After blocking for 2 hours at room temperature with phosphate buffered saline containing 1% bovine serum albumin, 2% goat serum and 0.05% Tween 20 (dilution buffer) the plates were incubated with human sera diluted 1:100 in dilution buffer. Bound human IgG was detected by incubation with anti-human IgG antibodies conjugated to alkaline phosphatase (Sigma Chemicals, St. Louis, Mo.). The plates were developed by the addition of […] (Sigma) and the optical densities were determined at 405 nm.

| Substance | optical density (OD) at 405 nm [OD] |
| --- | --- |
| LIRSPFTDPQLLVHTDP (Peptide Immunogen) [compound 51, overlapping synthetic peptide of TTV ORF1] | 0.06 |
| 22: overlapping synthetic peptide of TTV ORF1 (TATTTTYAYPGTNR) [compound 22] | 0.07 |

Same assay, conditions: human serum sample 2, negative for TTV DNA by PCR; serum diluted 1:100; OD over 0.500 considered positive

| Substance | optical density (OD) at 405 nm [OD] |
| --- | --- |
| LIRSPFTDPQLLVHTDP (Peptide Immunogen) [compound 51, overlapping synthetic peptide of TTV ORF1] | 0.09 |
| 22: overlapping synthetic peptide of TTV ORF1 (TATTTTYAYPGTNR) [compound 22] | 0.07 |

Same assay, conditions: human serum sample 3, negative for TTV DNA by PCR; serum diluted 1:100; OD over 0.500 considered positive

| Substance | optical density (OD) at 405 nm [OD] |
| --- | --- |
| LIRSPFTDPQLLVHTDP (Peptide Immunogen) [compound 51, overlapping synthetic peptide of TTV ORF1] | 0.08 |
| 22: overlapping synthetic peptide of TTV ORF1 (TATTTTYAYPGTNR) [compound 22] | 0.07 |

Same assay, conditions: human serum sample 4, negative for TTV DNA by PCR; serum diluted 1:100; OD over 0.500 considered positive

| Substance | optical density (OD) at 405 nm [OD] |
| --- | --- |
| LIRSPFTDPQLLVHTDP (Peptide Immunogen) [compound 51, overlapping synthetic peptide of TTV ORF1] | 0.10 |
| 22: overlapping synthetic peptide of TTV ORF1 (TATTTTYAYPGTNR) [compound 22] | 0.08 |

Same assay, conditions: human serum sample 5, negative for TTV DNA by PCR; serum diluted 1:100; OD over 0.500 considered positive

| Substance | optical density (OD) at 405 nm [OD] |
| --- | --- |
| LIRSPFTDPQLLVHTDP (Peptide Immunogen) [compound 51, overlapping synthetic peptide of TTV ORF1] | 0.12 |
| 22: overlapping synthetic peptide of TTV ORF1 (TATTTTYAYPGTNR) [compound 22] | 0.08 |

Same assay, conditions: human serum sample 6, negative for TTV DNA by PCR; serum diluted 1:100; OD over 0.500 considered positive

| Substance | optical density (OD) at 405 nm [OD] |
| --- | --- |
| LIRSPFTDPQLLVHTDP (Peptide Immunogen) [compound 51, overlapping synthetic peptide of TTV ORF1] | 0.24 |
| 22: overlapping synthetic peptide of TTV ORF1 (TATTTTYAYPGTNR) [compound 22] | 0.09 |

Same assay, conditions: human serum sample 7, negative for TTV DNA by PCR; serum diluted 1:100; OD over 0.500 considered positive

| Substance | optical density (OD) at 405 nm [OD] |
| --- | --- |
| LIRSPFTDPQLLVHTDP (Peptide Immunogen) [compound 51, overlapping synthetic peptide of TTV ORF1] | 0.13 |
| 22: overlapping synthetic peptide of TTV ORF1 (TATTTTYAYPGTNR) [compound 22] | 0.09 |

Same assay, conditions: human serum sample 9, positive for TTV DNA by PCR; serum diluted 1:100; OD over 0.500 considered positive

| Substance | optical density (OD) at 405 nm [OD] |
| --- | --- |
| LIRSPFTDPQLLVHTDP (Peptide Immunogen) [compound 51, overlapping synthetic peptide of TTV ORF1] | 0.07 |
| 22: overlapping synthetic peptide of TTV ORF1 (TATTTTYAYPGTNR) [compound 22] | 0.08 |

Same assay, conditions: human serum sample 11, negative for TTV DNA by PCR; serum diluted 1:100; OD over 0.500 considered positive

| Substance | optical density (OD) at 405 nm [OD] |
| --- | --- |
| LIRSPFTDPQLLVHTDP (Peptide Immunogen) [compound 51, overlapping synthetic peptide of TTV ORF1] | 0.13 |
| 22: overlapping synthetic peptide of TTV ORF1 (TATTTTYAYPGTNR) [compound 22] | 0.11 |

Same assay, conditions: human serum sample 18, positive for TTV DNA by PCR; serum diluted 1:100; OD over 0.500 considered positive

| Substance | optical density (OD) at 405 nm [OD] |
| --- | --- |
| LIRSPFTDPQLLVHTDP (Peptide Immunogen) [compound 51, overlapping synthetic peptide of TTV ORF1] | 0.07 |
| 22: overlapping synthetic peptide of TTV ORF1 (TATTTTYAYPGTNR) [compound 22] | 0.07 |

Same assay, conditions: human serum sample 36, positive for TTV DNA by PCR; serum diluted 1:100; OD over 0.500 considered positive

| Substance | optical density (OD) at 405 nm [OD] |
| --- | --- |
| LIRSPFTDPQLLVHTDP (Peptide Immunogen) [compound 51, overlapping synthetic peptide of TTV ORF1] | 0.08 |
| 22: overlapping synthetic peptide of TTV ORF1 (TATTTTYAYPGTNR) [compound 22] | 0.08 |

Same assay, conditions: human serum sample 48, positive for TTV DNA by PCR; serum diluted 1:100; OD over 0.500 considered positive

| Substance | optical density (OD) at 405 nm [OD] |
| --- | --- |
| LIRSPFTDPQLLVHTDP (Peptide Immunogen) [compound 51, overlapping synthetic peptide of TTV ORF1] | 0.08 |
| 22: overlapping synthetic peptide of TTV ORF1 (TATTTTYAYPGTNR) [compound 22] | 0.10 |

Same assay, conditions: human serum sample 98, positive for TTV DNA by PCR; serum diluted 1:100; OD over 0.500 considered positive

| Substance | optical density (OD) at 405 nm [OD] |
| --- | --- |
| LIRSPFTDPQLLVHTDP (Peptide Immunogen) [compound 51, overlapping synthetic peptide of TTV ORF1] | 0.11 |
| 22: overlapping synthetic peptide of TTV ORF1 (TATTTTYAYPGTNR) [compound 22] | 0.04 |

Same assay, conditions: human serum sample 110, positive for TTV DNA by PCR; serum diluted 1:100; OD over 0.500 considered positive

| Substance | optical density (OD) at 405 nm [OD] |
| --- | --- |
| LIRSPFTDPQLLVHTDP (Peptide Immunogen) [compound 51, overlapping synthetic peptide of TTV ORF1] | 0.09 |
| 22: overlapping synthetic peptide of TTV ORF1 (TATTTTYAYPGTNR) [compound 22] | 0.07 |

Same assay, conditions: human serum sample 155, positive for TTV DNA by PCR; serum diluted 1:100; OD over 0.500 considered positive

| Substance | optical density (OD) at 405 nm [OD] |
| --- | --- |
| LIRSPFTDPQLLVHTDP (Peptide Immunogen) [compound 51, overlapping synthetic peptide of TTV ORF1] | 0.24 |
| 22: overlapping synthetic peptide of TTV ORF1 (TATTTTYAYPGTNR) [compound 22] | 0.11 |

Same assay, conditions: human serum sample 157, positive for TTV DNA by PCR; serum diluted 1:100; OD over 0.500 considered positive

| Substance | optical density (OD) at 405 nm [OD] |
| --- | --- |
| LIRSPFTDPQLLVHTDP (Peptide Immunogen) [compound 51, overlapping synthetic peptide of TTV ORF1] | 0.78 |
| 22: overlapping synthetic peptide of TTV ORF1 (TATTTTYAYPGTNR) [compound 22] | 0.11 |

Same assay, conditions: tested human sera, EIA

| Substance | human reactivity to peptide (reactive peptides within ORF1) |
| --- | --- |
| LIRSPFTDPQLLVHTDP (Peptide Immunogen) [compound 51, overlapping synthetic peptide of TTV ORF1] | Reactive |

Tested on: human antibodies in human serum samples
Experiment: EIA reactivities of three human serum samples with deletion and alanine substitution analogues of SEQ ID NO: 1 (Table 6)
Format: binding
Details: human serum sample P4; positive = more than 50% of the reactivity of the original peptide
Experimental: as §1
The reactivity to the TATTTTYAYPGTNRPPV (SEQ ID NO: 1) peptide was further characterized by mapping the reactivity of deletion and substitution peptide analogues.

| Substance | OD at 405 nm, reactivity of human serum sample P4 [OD] |
| --- | --- |
| LIRSPFTDPQLLVHTDP (Peptide Immunogen) [compound 51, overlapping synthetic peptide of TTV ORF1] | 0.899 |
| 22: overlapping synthetic peptide of TTV ORF1 (TATTTTYAYPGTNR) [compound 22] | 0.092 |

Same assay, conditions: human serum sample P7; positive = more than 50% of the reactivity of the original peptide

| Substance | OD at 405 nm, reactivity of human serum sample P7 [OD] |
| --- | --- |
| LIRSPFTDPQLLVHTDP (Peptide Immunogen) [compound 51, overlapping synthetic peptide of TTV ORF1] | 1.697 |
| 22: overlapping synthetic peptide of TTV ORF1 (TATTTTYAYPGTNR) [compound 22] | 0.103 |

Same assay, conditions: human serum sample P36; positive = more than 50% of the reactivity of the original peptide

| Substance | OD at 405 nm, reactivity of human serum sample P36 [OD] |
| --- | --- |
| LIRSPFTDPQLLVHTDP (Peptide Immunogen) [compound 51, overlapping synthetic peptide of TTV ORF1] | 0.903 |
| 22: overlapping synthetic peptide of TTV ORF1 (TATTTTYAYPGTNR) [compound 22] | 0.078 |
